Results: PubChem BioAssay (NCI)
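All cell lines were grown in 96-well plates and treated with compound for 48 hours. TGI marks complete inhibition of growth.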

How the values were obtained:
Assay in all cases: DTP human tumour cell line panel, 48 h
HS 578T breast = system: HS 578T breast
SK-OV-3 ovarian = system: SK-OV-3 ovarian
SK-MEL-5 melanoma = system: SK-MEL-5 melanoma
SF-295 CNS = system: SF-295 CNS
K-562 leukemia = system: K-562 leukemia
HT29 colon = system: HT29 colon
OVCAR-5 ovarian = system: OVCAR-5 ovarian
TK-10 renal = system: TK-10 renal
M14 melanoma = system: M14 melanoma
LOX IMVI melanoma = system: LOX IMVI melanoma
PC-3 prostate = system: PC-3 prostate
SNB-19 CNS = system: SNB-19 CNS
HCT-15 colon = system: HCT-15 colon
HOP-62 NSCLC = system: HOP-62 NSCLC
786-0 renal = system: 786-0 renal
KM12 colon = system: KM12 colon
MOLT-4 leukemia = system: MOLT-4 leukemia
DU-145 prostate = system: DU-145 prostate
HCC-2998 colon = system: HCC-2998 colon

| SMILES | TGI (HS 578T breast) | TGI (SK-OV-3 ovarian) | TGI (SK-MEL-5 melanoma) | TGI (SF-295 CNS) | TGI (K-562 leukemia) | TGI (HT29 colon) | TGI (OVCAR-5 ovarian) | TGI (TK-10 renal) | TGI (M14 melanoma) | TGI (LOX IMVI melanoma) | TGI (PC-3 prostate) | TGI (SNB-19 CNS) | TGI (HCT-15 colon) | TGI (HOP-62 NSCLC) | TGI (786-0 renal) | TGI (KM12 colon) | TGI (MOLT-4 leukemia) | TGI (DU-145 prostate) | TGI (HCC-2998 colon) |
| --- | --- | --- | --- | --- | --- | --- | --- | --- | --- | --- | --- | --- | --- | --- | --- | --- | --- | --- | --- |
| CC(C)(C)[Si](C)(C)Oc1ccc(C2CNC(=O)C23CCC(=O)N3Cc2ccccc2)cc1 (stereo not given) | 21.5 µM | 29 µM | 19.6 µM | 30.6 µM | > 100 µM | 24.8 µM | 36.9 µM | 51.8 µM | 35 µM | 41.2 µM | 35.7 µM | 29.5 µM | 30 µM | 53.3 µM | 45.3 µM | > 100 µM | > 100 µM | 38.7 µM | – |
| O=c1c2ncn(C3CCCO3)c2n(-c2ccccc2)c(=S)n1-c1ccccc1 (stereo not given) | – | > 100 µM | > 100 µM | > 100 µM | > 100 µM | > 100 µM | > 100 µM | > 100 µM | > 100 µM | > 100 µM | > 100 µM | – | > 100 µM | > 100 µM | > 100 µM | > 100 µM | > 100 µM | > 100 µM | > 100 µM |
| COc1ccc(-c2nc3ncccn3c2-c2ccc(SC)cc2)cc1 | 7.7 µM | 2.85 µM | 4.29 µM | 3 µM | > 100 µM | 28.1 µM | 7.06 µM | – | 12.2 µM | 80.4 µM | > 100 µM | 5.94 µM | > 100 µM | 44.3 µM | 46 µM | 13.3 µM | > 100 µM | – | – |
| CC(=O)N(C)CCc1c[nH]c2ccccc12 | > 100 µM | > 100 µM | > 100 µM | > 100 µM | > 100 µM | > 100 µM | > 100 µM | > 100 µM | > 100 µM | > 100 µM | > 100 µM | > 100 µM | > 100 µM | > 100 µM | > 100 µM | > 100 µM | > 100 µM | > 100 µM | – |
| O=C(Cn1c(-c2ccccc2)cc2ccccc21)N1CCCC1 | > 100 µM | > 100 µM | > 100 µM | > 100 µM | – | > 100 µM | > 100 µM | – | > 100 µM | > 100 µM | > 100 µM | > 100 µM | > 100 µM | > 100 µM | > 100 µM | – | > 100 µM | > 100 µM | – |
| Cc1cc(/N=C/c2ccc(F)cc2)n(-c2ccccc2)n1 | > 100 µM | > 100 µM | > 100 µM | > 100 µM | > 100 µM | > 100 µM | > 100 µM | > 100 µM | > 100 µM | > 100 µM | > 100 µM | > 100 µM | > 100 µM | > 100 µM | > 100 µM | > 100 µM | > 100 µM | > 100 µM | – |
| CC(=O)O[C@H]1CC[C@@]2(C)C(=CC[C@H]3[C@@H]4C/C(=C\c5ccc(N(C)C)cc5)[C@H](OC(C)=O)[C@@]4(C)CC[C@@H]32)C1 | 9.36 µM | > 100 µM | 74.9 µM | 21 µM | > 100 µM | 34.2 µM | 52.8 µM | 35.6 µM | 36 µM | 20.8 µM | 16.7 µM | 27.3 µM | 31.9 µM | 51.6 µM | 19.1 µM | > 100 µM | > 100 µM | > 100 µM | – |
